Several values for one entry are separate records, joined by “and”; a condition that tells them apart may be missing. Equal values may be shown once. Read-outs that look alike come from different tables or passages of the source.
How the values were obtained:
[1] = target: T1, SFTSV CBD (Dabie bandavirus, UniProt I0DF35); format: binding
[2] = target: T1, SFTSV CBD; format: binding; remark: listed apart in the source
[3] = target: T1, SFTSV CBD; details: cited from earlier work
[4] = target: T2, RVFV CBD (Rift valley fever virus, UniProt P27316); details: cited from earlier work
T2 sequence (P27316 1706-1822 limits assumed): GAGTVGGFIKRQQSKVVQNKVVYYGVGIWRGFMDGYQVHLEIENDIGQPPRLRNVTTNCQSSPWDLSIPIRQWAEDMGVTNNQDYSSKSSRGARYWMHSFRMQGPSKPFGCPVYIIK

[5] = target: T1, SFTSV CBD; format: binding; remark: listed apart in the source
[6] = target: PB2 CBD (Influenza A virus, UniProt P31345)
Sequence of PB2 CBD (P31345 318-483 limits assumed): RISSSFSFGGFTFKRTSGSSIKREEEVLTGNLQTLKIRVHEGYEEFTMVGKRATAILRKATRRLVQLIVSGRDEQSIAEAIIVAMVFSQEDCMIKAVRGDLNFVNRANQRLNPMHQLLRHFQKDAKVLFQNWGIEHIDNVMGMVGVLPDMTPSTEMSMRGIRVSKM

[7] = target: T1, SFTSV CBD; details: cited from earlier work; remark: listed apart in the source
[8] = target: T1, SFTSV CBD; format: binding; remark: listed apart in the source
[9] = target: T2, RVFV CBD; format: binding
[10] = target: human eIF4E (Homo sapiens, UniProt P06730); format: binding
Sequence of human eIF4E (P06730 whole entry): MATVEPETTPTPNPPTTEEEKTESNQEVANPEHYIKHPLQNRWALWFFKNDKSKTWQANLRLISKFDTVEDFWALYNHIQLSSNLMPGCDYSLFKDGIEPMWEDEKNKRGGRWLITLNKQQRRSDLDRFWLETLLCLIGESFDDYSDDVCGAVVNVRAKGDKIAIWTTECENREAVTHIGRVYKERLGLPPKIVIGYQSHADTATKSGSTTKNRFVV

T1 sequence (I0DF35 1695-1810 limits assumed): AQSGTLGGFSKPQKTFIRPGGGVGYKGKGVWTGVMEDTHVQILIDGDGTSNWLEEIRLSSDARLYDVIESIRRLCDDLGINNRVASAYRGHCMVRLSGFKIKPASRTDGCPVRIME

| Structure (SMILES) | Kd [2] | Effect on thermal stability of the protein [3] | Effect on thermal stability of the protein [4] | Kd [5] | further results |
| --- | --- | --- | --- | --- | --- |
| Nc1nc2c(ncn2[C@@H]2O[C@H](COP(=O)(O)OP(=O)(O)OP(=O)(O)O)[C@@H](O)[C@H]2O)c(=O)[nH]1 [GTP] | 20000 µM | not | not |  | SPR signal on injection of increasing concentrations [1]: did not result in a dose-dependent signal increase |
| CC[N+]1=C(/C=C/C=C/C=C2/N(CCCCCC(=O)NCCOCCOCCOCCOCCC(=O)Nc3ccc(OP(=O)([O-])OP(=O)(O)OP(=O)(O)OC[C@H]4O[C@@H](n5c[n+](C)c6c(=O)[nH]c(N)nc65)[C@H](O)[C@@H]4O)cc3)c3ccc(S(=O)(=O)O)cc3C2(C)C)C(C)(C)c2cc(S(=O)(=O)[O-])ccc21 [m^7GTP-γ-aminophenyl-PEG4-Cy5] |  |  |  | 106 µM |  |
| Cn1c[n+]([C@@H]2O[C@H](COP(=O)([O-])OP(=O)(O)OP(=O)(O)O)[C@@H](O)[C@H]2O)c2nc(N)[nH]c(=O)c21 [m^7GTP] | ~6000 µM and 6100 µM and 10700 µM | higher thermal stability | higher thermal stability |  | Kd [1]: ~1000 µM; Kd [6]: 2.8 µM; Kd [7]: 138 µM |
| O=C(O)[C@H]1C2CCC(CC2)[C@@H]1Nc1nc(-c2c[nH]c3ncc(F)cc23)ncc1F [pimodivir] |  |  |  |  | Effect on thermal stability of the protein [8]: destabilization of the protein; Effect on thermal stability of the protein [9]: destabilization of the protein |
| CC[N+]1=C(/C=C/C=C/C=C2/N(CCCCCC(=O)NCCNC(=O)O[C@@H]3[C@H](O)[C@@H](COP(=O)(O)OP(=O)(O)OP(=O)([O-])O)O[C@H]3n3c[n+](C)c4c(=O)[nH]c(N)nc43)c3ccc(S(=O)(=O)O)cc3C2(C)C)C(C)(C)c2cc(S(=O)(=O)[O-])ccc21 [EDA-m^7GTP-Cy5] |  |  |  | 55 µM and 32 µM and 36 µM | Kd [10]: 0.036 µM and 0.033 µM and 0.028 µM |
| Nc1ncnc2c1ncn2[C@@H]1O[C@H](COP(=O)(O)OP(=O)(O)OP(=O)(O)O)[C@@H](O)[C@H]1O [ATP] | 20000 µM |  |  |  |  |

— article PMC10739838, “Limited high-throughput screening compatibility of the phenuivirus cap-binding domain” (Scientific Reports, 2023)
